Values of other authors as cited in patent US8753875B2, “Compositions and means for diagnosing microbial infections” (priority 2007, dated 2014).
Read-outs that look alike come from different tables or passages of the source.

Tests used:
[1] = tested on: E. coli; conditions: cited from earlier work
[2] = tested on: E. coli; conditions: 1142 E. coli outpatient urinary isolates, USA and Canada; cited from earlier work

SMILES | Antimicrobial resistance of E. coli (resistance in percent) ([1]; Austria, n 126) | Antimicrobial resistance of E. coli (resistance in percent) ([1]; Belgium, n 137) | Antimicrobial resistance of E. coli (resistance in percent) ([1]; Canada, n 166) | Antimicrobial resistance of E. coli (resistance in percent) ([1]; Denmark, n 85) | Antimicrobial resistance of E. coli (resistance in percent) ([1]; Finland, n 182) | Antimicrobial resistance of E. coli (resistance in percent) ([1]; France, n 199) | Antimicrobial resistance of E. coli (resistance in percent) ([1]; Germany, n 138) | Antimicrobial resistance of E. coli (resistance in percent) ([1]; Greece, n 132) | Antimicrobial resistance of E. coli (resistance in percent) ([1]; Ireland, n 154) | Antimicrobial resistance of E. coli (resistance in percent) ([1]; Luxembourg, n 24) | Antimicrobial resistance of E. coli (resistance in percent) ([1]; Norway, n 168) | Antimicrobial resistance of E. coli (resistance in percent) ([1]; Portugal, n 86) | Antimicrobial resistance of E. coli (resistance in percent) ([1]; Spain, n 191) | Antimicrobial resistance of E. coli (resistance in percent) ([1]; Sweden, n 193) | Antimicrobial resistance of E. coli (resistance in percent) ([1]; Switzerland, n 122) | Antimicrobial resistance of E. coli (resistance in percent) ([1]; The Netherlands, n 195) | Antimicrobial resistance of E. coli (resistance in percent) ([1]; Total, n 2478) | Antimicrobial resistance of E. coli (resistance in percent) ([1]; United Kingdom, n 180) | Overall resistance in E. coli [2]
CC1=C(C(=O)O)N2C(=O)C(NC(=O)C(N)c3ccc(O)cc3)C2SC1 (stereo not shown) [CFR, 8-[2-amino-2-(4-hydroxyphenyl)-acetyl]amino-4-methyl-7-oxo-2-thia-6-azabicyclo [4.2.0] oct-4-ene-5-carboxylic acid] | 0.8% | 0.7% | 1.8% | 1.2% | 1.6% | 1.0% | 1.4% | 3.0% | 0.6% | 0% | 2.4% | 2.3% | 3.1% | 5.2% | 0.8% | 4.6% | 2.1% | 1.7% | –
O=C(O)c1cn(C2CC2)c2cc(N3CCNCC3)c(F)cc2c1=O [CIP, 1-cyclopropyl-6-fluoro-4-oxo-7-piperazin-1-yl-quinoline-3-carboxylic acid] | 0% | 2.9% | 0% | 0% | 0.5% | 2.0% | 2.2% | 1.5% | 0% | 4.2% | 0% | 5.8% | 14.7% | 0% | 2.5% | 2.1% | 2.3% | 0.6% | 5.5%
C[C@@H]1O[C@@H]1P(=O)(O)O [FOF, [(2R,3S)-3-methyloxiran-2-yl]phosphonic acid] | 0% | 0.7% | 0.6% | 1.2% | 1.1% | 1.0% | 0% | 1.5% | 1.3% | 0% | 1.2% | 0% | 0.5% | 0.5% | 0.8% | 0.5% | 0.7% | 0% | –
CNC(C)C1CCC(N)C(OC2C(N)CC(N)C(OC3OCC(C)(O)C(NC)C3O)C2O)O1 (stereo not shown) [GEN, 2-[4,6-diamino-3-[3-amino-6-(1-methylaminoethyl)tetrahydropyran-2-yl]oxy-2-hydroxy-cyclohexoxy]-5-methyl-4-methylamino-tetrahydropyran-3,5-diol] | 0.8% | 0.7% | 0.6% | 0% | 0.5% | 0% | 0.7% | 0.8% | 0.6% | 0% | 0% | 3.5% | 4.7% | 0% | 3.3% | 0.5% | 1.0% | 0% | –
